Measured values taken from article PMC7272617 (Scientific Reports, 2020).
In brackets after ≈: the same amount, converted by molar mass. Where two headings read alike, the source gives them in different places.

Key:
[1] = tested on: Pseudomonas aeruginosa ATCC 27853; assay: microbe, parasite or virus in culture; details: ATCC27853, 24 h
[2] = tested on: MDR P. aeruginosa clinical isolate No.1; assay: microbe, parasite or virus in culture; details: Pseudomonas aeruginosa
[3] = tested on: MDR P. aeruginosa clinical isolate No.2; assay: microbe, parasite or virus in culture; details: Pseudomonas aeruginosa
[4] = tested on: MDR P. aeruginosa clinical isolate No.3; assay: microbe, parasite or virus in culture; details: Pseudomonas aeruginosa
[5] = tested on: MDR P. aeruginosa clinical isolate No.4; assay: microbe, parasite or virus in culture; details: Pseudomonas aeruginosa
[6] = tested on: MDR P. aeruginosa clinical isolate No.5; assay: microbe, parasite or virus in culture; details: Pseudomonas aeruginosa
[7] = tested on: MDR P. aeruginosa clinical isolate No.6; assay: microbe, parasite or virus in culture; details: Pseudomonas aeruginosa
[8] = tested on: MDR P. aeruginosa clinical isolate No.7; assay: microbe, parasite or virus in culture; details: Pseudomonas aeruginosa
[9] = tested on: MDR P. aeruginosa clinical isolate No.8; assay: microbe, parasite or virus in culture; details: Pseudomonas aeruginosa
[10] = tested on: MDR P. aeruginosa clinical isolate No.9; assay: microbe, parasite or virus in culture; details: Pseudomonas aeruginosa
[11] = tested on: MDR P. aeruginosa clinical isolate No.10; assay: microbe, parasite or virus in culture; details: Pseudomonas aeruginosa
[12] = tested on: MDR P. aeruginosa clinical isolate No.11; assay: microbe, parasite or virus in culture; details: Pseudomonas aeruginosa
[13] = tested on: MDR P. aeruginosa clinical isolate No.12; assay: microbe, parasite or virus in culture; details: Pseudomonas aeruginosa
[14] = tested on: MDR P. aeruginosa clinical isolate No.13; assay: microbe, parasite or virus in culture; details: Pseudomonas aeruginosa
[15] = tested on: MDR P. aeruginosa clinical isolate No.14; assay: microbe, parasite or virus in culture; details: Pseudomonas aeruginosa
[16] = tested on: human red blood cells (hRBCs); assay: Hemolytic activity, hemoglobin release; details: 2% hRBC, 1 h, 37 °C
Procedure: Hemolytic activity of the peptides was assayed against human red blood cells (hRBCs) by measuring the amount of hemoglobin released after treatment. The hRBCs, freshly collected from a healthy volunteer in polycarbonate tubes containing heparin, were washed three times in sterile phosphate buffered saline (PBS) and centrifuged at 2,000 × g for 5 min or until the supernatant became clear. […] After 1 h of incubation at 37 °C, intact hRBCs were pelleted by centrifugation at 2,000 × g for 10 min. The supernatant was transferred to a new 96-well plate and the release of hemoglobin was monitored by measurement of absorbance at 405 nm using a Multiskan FC microplate reader. The hRBCs in PBS only (ODBlank) and in 0.1% Triton X-100 (ODTriton X-100) were employed as negative (0% hemolysis) and positive (100% hemolysis) controls, respectively. The percentage of hemolysis was calculated according to the following equation: %Hemolysis=(ODSample−ABlank)/(ODTritonX−100−ODBlank)×100

[17] = tested on: all Gram-negative strains; assay: Mean MIC and therapeutic index, Gram-negative strains; format: cell-based; details: 7 Gram-negative strains of Table 3
Procedure: (§1) The antimicrobial activity of the peptides was determined against both Gram-positive and -negative bacteria including 14 MDR P. aeruginosa clinical isolates from Bhumibol Adulyadej Hospital (Tables 1 and 3). The minimal inhibitory concentration (MIC) of each peptide was measured according to a modification of the National Committee for Clinical Laboratory Standards (NCCLS) broth microdilution method as previously described. Briefly, bacterial cells in mid-log phase were cultured in Müeller-Hinton broth (MHB) and then diluted to 10^7 CFU/ml. […] Plates were incubated at 37 °C for 24 h, and MICs were defined as the lowest concentration of peptide that prevented visible turbidity. Cultures without peptides and uninoculated MHB were employed as positive and negative controls, respectively. Colony count assays were performed to determine the minimal bactericidal concentrations (MBCs) for determination of time-killing activity. As previously described, a 50 μl aliquot from each non-turbid well identified in the MIC determination experiment was spread on agar plates.
(§2) To further evaluate the global activity of these peptides, the geometric mean (GM) MIC and the therapeutic index (TI) of each were calculated (Table 3). The TI, a widely used parameter to evaluate cell selectivity and specificity of antimicrobial agents, was calculated as the ratio of MHC (the concentration that causes 10% hemolysis) to the geometric mean of MICs[22]. Higher TIs indicated greater cell selectivity and specificity.

[18] = tested on: all Gram-positive strains; assay: Mean MIC and therapeutic index, Gram-positive strains; format: cell-based; details: 5 Gram-positive strains of Table 3
Procedure: as §1, §2

P. aeruginosa ATCC 27853 = assay: Membrane permeability (PI) and depolarization (BOX), flow cytometry; format: cell-based, Pseudomonas aeruginosa; details: 1 × MIC, 30 min; for permeabilized and depolarized cells (BOX+PI+): 37 °C, triplicate
Procedure: Their outer and inner membranes provide important protection for Gram-negative bacteria. To assess membrane permeability and depolarization induced by PA-13, the DNA intercalating dyes propidium iodide (PI) and bis-(1,3-dibutylbarbituric acid) trimethine oxonol (BOX) were used as previously described. The fluorescence conferred by these dyes is generally associated with the loss of membrane integrity and potential, respectively.
Briefly, P. aeruginosa ATCC 27853 was cultured to mid-logarithmic phase and harvested by centrifugation at 2,000 × g for 5 min. The bacterial cells were washed thrice with PBS and diluted to 10^7 CFU/ml in 50 ml of PBS. […] Bacterial pellets were harvested and washed with PBS by centrifugation at 10,000 × g for 10 min. […] Untreated bacterial cells (no peptide) served as a negative control, whereas bacterial cells treated with melittin served as a positive control. Data was recorded using a flow cytometer (CytoFlex, Beckman Coulter) at a laser excitation wavelength of 488 nm. Forward scatter (FS), side scatter (SS), green fluorescence (530/30 nm) from BOX and red fluorescence (585/42 nm) emitted by PI were collected using logarithmic scales. 25,000 cells, defined according to their scatter parameters, were counted in each sample. The experiments were performed in triplicate and the data was analyzed using Kaluza software.

[19] = tested on: Pseudomonas aeruginosa ATCC 27853; details: P. aeruginosa ATCC 27853; MHB, 10^7 CFU/ml, 37 °C, 24 h, no visible turbidity
[20] = tested on: Escherichia coli O157:H7 MT strain; details: E. coli O157:H7 MT strain; MHB, 37 °C, 24 h
[21] = tested on: Shigella sonnei ATCC 11060; details: MHB, 37 °C, 24 h
[22] = tested on: Salmonella Typhimurium ATCC 13311; details: Salmonella Typhimurium ATCC 13311; MHB, 37 °C, 24 h
[23] = tested on: Vibrio cholera O1 Inaba DMST 16261; details: MHB, 37 °C, 24 h
[24] = tested on: Acinetobacter baumannii MT strain; details: Acinetobacter baumannii MT strain; MHB, 37 °C, 24 h
[25] = tested on: Staphylococcus epidermidis ATCC 12228; details: S. epidermidis ATCC 12228; MHB, 37 °C, 24 h
[26] = tested on: Bacillus cereus ATCC 11778; details: Bacillus cereus ATCC 11778; MHB, 37 °C, 24 h
[27] = tested on: Enterococcus faecalis ATCC 29212; details: Enterococcus faecalis ATCC 29212; MHB, 37 °C, 24 h
[28] = tested on: Listeria monocytogenes 10403 s; details: Listeria monocytogenes 10403 s; MHB, 37 °C, 24 h
[29] = tested on: L929 mouse fibroblast cells; assay: Cytotoxicity, MTT viability assay; details: 250 µg/ml, 24 h, triplicate

C[C@@H](O)[C@H]1C(=O)N2C(C(=O)O)=C(SCCN=CN)C[C@H]12 [Imipenem]
MIC [1]: ≤ 0.98 mg/L | MIC [2]: > 125 mg/L | MIC [3]: > 125 mg/L | MIC [4]: > 125 mg/L | MIC [5]: > 125 mg/L | MIC [6]: 125 mg/L (≈ 418 µM) | MIC [7]: > 125 mg/L | MIC [8]: > 125 mg/L | MIC [9]: 125 mg/L (≈ 418 µM) | MIC [10]: > 125 mg/L | MIC [11]: > 125 mg/L | MIC [12]: > 125 mg/L | MIC [13]: 125 mg/L (≈ 418 µM) | MIC [14]: 62.5 mg/L (≈ 209 µM) | MIC [15]: > 125 mg/L

CC[C@H](C)[C@H](NC(=O)CN)C(=O)NCC(=O)N[C@@H](C)C(=O)N[C@H](C(=O)N[C@@H](CC(C)C)C(=O)N[C@@H](CCCCN)C(=O)N[C@H](C(=O)N[C@@H](CC(C)C)C(=O)N[C@H](C(=O)N[C@H](C(=O)NCC(=O)N[C@@H](CC(C)C)C(=O)N1CCC[C@H]1C(=O)N[C@@H](C)C(=O)N[C@@H](CC(C)C)C(=O)N[C@H](C(=O)N[C@@H](CO)C(=O)N[C@@H](Cc1c[nH]c2ccccc12)C(=O)N[C@H](C(=O)N[C@@H](CCCCN)C(=O)N[C@@H](CCCNC(=N)N)C(=O)N[C@@H](CCCCN)C(=O)N[C@@H](CCCNC(=N)N)C(=O)N[C@@H](CCC(N)=O)C(=O)N[C@@H](CCC(N)=O)C(N)=O)[C@@H](C)CC)[C@@H](C)CC)[C@@H](C)O)[C@@H](C)O)C(C)C)C(C)C [Melittin, reference compound]
concentration at which hemolysis was complete (100%) [16]: 1.95 µg/mL | GM (Gr.− strains): geometric mean of MIC values from all Gram-negative strains [17]: 10.60 mg/L | GM (Gr.+ strains): geometric mean of MIC values from all Gram-positive strains [18]: 3.52 mg/L | cell population BOX+PI- (P. aeruginosa ATCC 27853): 2.70% | cell population BOX-PI+ (P. aeruginosa ATCC 27853): 0.12% | cell population BOX-PI- (P. aeruginosa ATCC 27853): 3.14% | permeabilized and depolarized cells (BOX+PI+) (P. aeruginosa ATCC 27853): 94.04% | permeabilized and depolarized cells (BOX+PI+) (P. aeruginosa ATCC 27853; listed as melittin): 94.04 ± 3.25% | MIC [19]: 15.63 mg/L (≈ 5.49 µM) | MIC [20]: 7.81 mg/L (≈ 2.74 µM) | MIC [21]: 3.91 mg/L (≈ 1.37 µM) | MIC [22]: 3.91 mg/L (≈ 1.37 µM) | MIC [23]: 3.91 mg/L (≈ 1.37 µM) | MIC [24]: 7.81 mg/L (≈ 2.74 µM) | MIC [25]: 3.91 mg/L (≈ 1.37 µM) | MIC [26]: 3.91 mg/L (≈ 1.37 µM) | MIC [27]: 1.95 mg/L (≈ 0.685 µM) | MIC [28]: 3.91 mg/L (≈ 1.37 µM) | L929 cell survival at the maximum concentration [29]: less than 1%
